The first test concerns Wistar type male rat. The test can be described thus: Activity to resist growth of ulcer (ethanol hydrochloric acid induced gastric injury). The test is classed as in vivo. The following applies: 30mg/kg orally, 1 hour before oral ethanol hydrochloric acid, ulcer index 1 hour later. As to the method: A Wistar type male rat (body weight 150 to 200 g) was fasted for 24 hours, then orally administered with a catechol compound according with the present invention and, on elapse of 1 hour thereafter, orally administered with ethanol hydrochloric acid (having 150 mM hydrochloric acid contained in 60% ethanol) at a rate of 0.5 ml/100 g of body weight.
After 1 hour following the oral administration of ethanol hydrochloric acid, the rat was sacrified with ether. The stomach was excited from the corpse, treated with formalin, and visually examined to measure lengths of injuries generated on the glanular part of the stomach. The total of injuries was reported as an ulcer index of the rat in question.
The term "ratio of inhibiting formation of ulcer (%)" as used in the table refers to a numerical value obtained by subtracting the ulcer index of a rat orally administered with a given catechol compound according with the present invention from the ulcer index of a rat not orally administered with catechol compound and multiplying the difference by 100.
On to `CCCCCCCCCC(O)CC(=O)CCc1ccc(O)c(O)c1` (stereo not drawn) [Example 4, 1-(3,4-hydroxyphenyl)-5-hydroxytetradecan-3-one], for which the “Ratio of inhibiting formation of ulcer (%)” value was determined as 84.4%.

Still in this test, the particulars now being: 30mg/kg orally, 1 hour before oral ethanol hydrochloric acid, ulcer index 1 hour later, read-out: Ratio of inhibiting formation of ulcer (%).
For the molecule `CCCCCC(=O)CC(=O)C=Cc1ccc(O)c(O)c1` [Example 9, 1-(3,4-dihydroxyphenyl)-1-decen-3,5-dione], the inhibition in vivo at 30 mg/kg amounted to 77.9%. Regarding `CCCCCCCC(=O)CC(=O)CCc1ccc(O)c(O)c1` [Example 8, 1-(3,4-dihydroxyphenyl)-3,5-dodecane dione], the inhibition in vivo at 30 mg/kg amounted to 88.3%. For `CCCC(=O)CC(=O)CCc1ccc(O)c(O)c1` [Example 12, 1-(3,4-dihydroxyphenyl)-3,5-octadione], the inhibition in vivo at 30 mg/kg amounted to 81.8%. With `CCCCCCCCCC(=O)CC(=O)C=Cc1ccc(O)c(O)c1` [Example 1, 1-(3,4-dihydroxyphenyl)-1-tetradecen-3,5-dione], the inhibition in vivo at 30 mg/kg was determined as 82.4%.

For `CCCCCCCC(=O)CC(=O)C=Cc1ccc(O)c(O)c1` [Example 7, 1-(3,4-dihydroxyphenyl)-1-dodecen-3,5-dione], the inhibition in vivo at 30 mg/kg came to 85.7%. `CCCCCCCCCC(=O)CC(=O)CCc1ccc(O)c(O)c1` [Example 2, 1-(3,4-dihydroxyphenyl)-3,5-tetradecane dione]: the inhibition in vivo at 30 mg/kg turned out to be 92.1%. As to `CCCC(=O)CC(=O)C=Cc1ccc(O)c(O)c1` [Example 11, 1-(3,4-dihydroxyphenyl)-1-octen-3,5-dione], the inhibition in vivo at 30 mg/kg came out at 58.7%. As for `CCCCCC(=O)CC(=O)CCc1ccc(O)c(O)c1` [Example 10, 1-(3,4-dihydroxyphenyl)-3,5-decane dione], the inhibition in vivo at 30 mg/kg amounted to 84.6%.
